The values below come from patent publication US10357549B2, “Pigment epithelium-derived factor (PEDF) and peptide derivatives thereof for use in osteoblast differentiation and bone growth” (Yale University, priority 2014, dated 2019).

Type in all cases: cell-based, human
The subject of one assay is hMSCs. In words: Mineralization of hMSCs under continuous Wnt3a (Alizarin red, 21 days). Here is the method:
Experiments were conducted to evaluate the effect of PEDF-derived peptides on the mineralization of hMSCs. […] For “late” groups, PEDF 34-mer was added only during the last 8 days of the differentiation protocol. Mineralization was assessed by Alizarin red staining (FIG. 14C).

In the next assay the test system is β-catenin. Briefly: Active β-catenin and mature osteoblast gene expression in hMSC cultures with Wnt3a and PEDF peptides. As to the method: Experiments were conducted to evaluate the effect of Wnt3a and PEDF-derived peptides on β-catenin, a transcriptional regulator of osteoblast differentiation. Cultures incubated in 50 ng/ml Wnt3a alone or in combination with 100 nM PEDF-derived peptides.

Assay [1] has as its system Wnt cell surface receptor LRP6. Briefly: Canonical Wnt-β-catenin signaling in hMSCs (immunoblot of phospho-LRP6 and active β-catenin). Here is the method: The inhibitor of Wnt production (IWP-2; Tocris Bioscience, Minneapolis, Minn., USA; 2 μM×24-48 h) was used to block production of endogenous Wnt proteins (Chen et al., 2009, Nat Chem Biol, 5: 100-107; Clevers et al., 2012, Cell, 149: 1192-1205). All other chemicals, unless indicated, were purchased from Sigma (St. Louis, Mo., USA).
Adipose-derived hMSCs [American Type Culture Collection (ATCC), Manasses, Va., USA; PCS-500-011) were propagated in MSC basal medium supplemented with MSC growth kit (ATCC). Cells were CD29, CD44, CD105, and CD166 positive and negative for CD 31, CD34, and CD45. Interrogation of Wnt-β-catenin signaling was done in ATCC MSC basal medium with 2% FBS. PEDF (500 ng/ml) was added for 6 h. Passage 2 and 3 hMSCs were used for Wnt signaling experiments. For adipocyte conversion, cells (5000 cells/cm^2) were placed in adipocyte differentiation medium (ATCC; PCS-500-050) for 9-10 d. For osteoblast differentiation, cells (5000 cells/cm^2) were differentiated in osteoblast differentiation medium (ATCC; PCS-500-052) for 10-21 d. Alkaline phosphatase kit (Sigma) was used to stain osteoblasts.
Immunoblotting was performed as described previously (Schmitz et al., 2011, Am J Pathol, 179: 2990-2999). Proteins were separated by 10% SDS-PAGE on gradient gels (Bio-Rad, Hercules, Calif., USA). Antibodies against nonphosphorylated β-catenin, total β-catenin, phospho-LRP6 (serine 1490), total LRP6 (Cell Signaling Technologies, Danvers, Mass., USA), and alkaline phosphatase (Developmental Studies Hybridoma Bank, University of Iowa, Iowa City, Iowa, USA). To assess signaling through the Wnt coreceptor LRP6, 3T3 adipocyte precursors with vector and LRP6-KO shRNA were used (Liu et al., 2012, J Biol Chem, 287: 7213-7223). On confluence, cells were serum starved for 48 h, and then changed to DMEM with 10% FCS (d 0). PEDF (10 nM) was added on d 0, and cells were harvested after 48 h. Knockdown was confirmed by immunoblotting for total LRP6. β-actin (Sigma) was used as a loading control.

For the molecule “DPFFKVPVNALAAAVSNFGYDLYRVRSSTSPTTN [SEQ ID NO: 4, mutated K→A PEDF 34-mer peptide]”, the “Alizarin red quantitation relative to native PEDF 34-mer” value with hMSCs (100 nM peptide with continuous Wnt3a 50 ng/ml, 21 days) is reported as “gain of function properties”. Besides, the “mineralization of hMSCs, final phase addition” value with hMSCs (added last 8 of 21 days) is on record as “stimulates mineralization”. Also, the “osteoblast mineralization, peptide added in the last eight days” value with hMSCs (added last 8 of 21 days, continuous Wnt3a 50 ng/ml) is “comparable to the full-length protein added for 21 days”. In addition, the “expression of osterix (OSX)” value in the assay on β-catenin (hMSC differentiated for 21 days, 50 ng/ml Wnt3a and 100 nM peptide) is reported as “increases the expression of osterix (OSX)”.
As for “DPFFKVPVNKLAAAVSNFGYDLYRVRSSTSPTTN [PEDF 34-mer, PEDF-derived 34-mer peptide]”, the “levels of active β-catenin” value in the assay with β-catenin (100 nM peptide with 50 ng/ml Wnt3a) was “increases the levels of active β-catenin”.
`Cc1ccc2nc(NC(=O)CSc3nc4c(c(=O)n3-c3ccccc3)SCC4)sc2c1` [IWP-2, reference compound]: the “LRP6 phosphorylation (endogenous Wnt production)” value in assay [1] (IWP-2 2 μM incubation 48 h alone) is “near absence of LRP6 phosphorylation”.

B1: Wnt3a (protein, UniProt P56704 19-352, looked up)
Protein Wnt-3a: SYPIWWSLAVGPQYSSLGSQPILCASIPGLVPKQLRFCRNYVEIMPSVAEGIKIGIQECQHQFRGRRWNCTTVHDSLAIFGPVLDKATRESAFVHAIASAGVAFAVTRSCAEGTAAICGCSSRHQGSPGKGWKWGGCSEDIEFGGMVSREFADARENRPDARSAMNRHNNEAGRQAIASHMHLKCKCHGLSGSCEVKTCWWSQPDFRAIGDFLKDKYDSASEMVVEKHRESRGWVETLRPRYTYFKVPTERDLVYYEASPNFCEPNPETGSFGTRDRTCNVSSHGIDGCDLLCCGRGHNARAERRREKCRCVFHWCCYVSCQECTRVYDVHTCK
notes: prototypical Wnt agonist ligand
B1: in the assay on hMSCs (Wnt3a 50 ng/ml continuous, 21-day-old hMSC cultures), the “mineralization (Alizarin red) with continuous Wnt3a versus controls” value is “diminished mineralization”. Further, the LRP6 phosphorylation entry in assay [1] (hMSCs, Wnt3a 50 ng/ml, PEDF 500 ng/ml) is “increased LRP6 phosphorylation”. Besides, the “active β-catenin under unopposed and continuous Wnt3a” value in the assay on β-catenin (50 ng/ml Wnt3a alone) is on record as “suppresses active β-catenin”.
